Common to all, as to experiment: DHFR Inhibition Assay
Test [1] addresses T1, Dihydrofolate reductase (Staphylococcus aureus, UniProt Q4H3Y3).
T1 sequence (Q4H3Y3 whole entry): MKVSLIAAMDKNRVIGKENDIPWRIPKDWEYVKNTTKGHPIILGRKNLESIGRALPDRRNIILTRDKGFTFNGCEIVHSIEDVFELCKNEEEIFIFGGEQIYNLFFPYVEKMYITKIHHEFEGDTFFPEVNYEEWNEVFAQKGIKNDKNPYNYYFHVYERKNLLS

Test [2] deals with T2, Dihydrofolate reductase (Staphylococcus aureus, UniProt C7C2U7).
T2 sequence (C7C2U7 whole entry): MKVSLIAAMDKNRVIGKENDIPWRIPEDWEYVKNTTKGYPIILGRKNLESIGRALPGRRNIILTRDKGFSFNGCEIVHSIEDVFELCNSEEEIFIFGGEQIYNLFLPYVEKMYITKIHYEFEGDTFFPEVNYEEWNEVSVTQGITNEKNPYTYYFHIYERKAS

The target of test [3] is Dihydrofolate reductase type 1 from Tn4003 (Staphylococcus aureus, UniProt P13955).
For test [4], the target named is Dihydrofolate reductase (Staphylococcus aureus, UniProt P0A017).

The pIC50 is the negative decadic logarithm of the IC50, by convention in mol/L. A high value points to a low IC50.

Molecules are shown by their SMILES. pIC50: −log10 of the molar value.

Sequence of Dihydrofolate reductase type 1 from Tn4003 (P13955 whole entry): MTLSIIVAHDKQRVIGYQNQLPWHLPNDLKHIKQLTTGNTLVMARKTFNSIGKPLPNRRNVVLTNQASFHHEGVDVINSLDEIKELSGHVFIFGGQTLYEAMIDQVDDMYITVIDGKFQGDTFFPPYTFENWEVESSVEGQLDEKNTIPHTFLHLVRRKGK
Sequence of Dihydrofolate reductase (Staphylococcus aureus, UniProt P0A017) (P0A017 whole entry): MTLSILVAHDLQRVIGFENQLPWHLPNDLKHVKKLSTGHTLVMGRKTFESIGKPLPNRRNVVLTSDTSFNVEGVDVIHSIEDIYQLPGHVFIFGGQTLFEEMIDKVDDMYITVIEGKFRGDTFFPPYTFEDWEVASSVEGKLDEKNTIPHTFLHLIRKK

For `CCc1nc(N)nc(N)c1C#CCc1cc(OC)c(OC)c(-c2ccncc2)c1` [UCP1039], the figures for the pIC50 (on Dihydrofolate reductase [1]; at Dihydrofolate reductase [2]; in test [3]) were 6.35, 7.66 and 6.44, respectively.

With `CCc1nc(N)nc(N)c1C#C[C@@H](C)c1cc(-c2ccc(C(=O)O)cc2)ccc1OC` [UCP1164], the negative logarithm of the IC50 (pIC50) in test [3] was 5.06.

Turning to `CCc1nc(N)nc(N)c1C#C[C@@H](C)c1cc(OC)cc(-c2ccc(C(=O)O)cc2)c1` [UCP1172], the pIC50 in test [3] was 6.39.

The molecule `CCc1nc(N)nc(N)c1C#C[C@H](C)c1cc(OC)cc(-c2ccc(C(=O)O)cc2)c1` [UCP1173] gave a pIC50 in test [3] of 6.57.

As to `CCc1nc(N)nc(N)c1C#CCc1cc(OC)cc(-c2ccc(C(=O)O)cc2)c1` [UCP1175], the pIC50 is 5.85 against Dihydrofolate reductase [1], 6.77 on Dihydrofolate reductase [2] and 6.01 in test [3].

In the case of `CCc1nc(N)nc(N)c1C#CC(C)c1cc2c(c(-c3ccc(C(=O)O)cc3)c1)OCO2` (stereo unspecified) [UCP1191], the pIC50 against Dihydrofolate reductase [1] was 7.06; on Dihydrofolate reductase [4] it was 8.00; on Dihydrofolate reductase [2], 7.39; in test [3], 6.49.

Consider `CCc1nc(N)nc(N)c1C#C[C@@H](C)c1cc2c(c(-c3ccc(C(=O)O)cc3)c1)OCO2` [UCP1205], for which the pIC50 on Dihydrofolate reductase [1] was 6.80; against Dihydrofolate reductase [4], 7.74; at Dihydrofolate reductase [2], 7.00; in test [3], 6.47.

With `CCc1nc(N)nc(N)c1C#C[C@H](C)c1cc2c(c(-c3ccc(C(=O)O)cc3)c1)OCO2` [UCP1206], the pIC50 was 6.72 on Dihydrofolate reductase [1], 7.77 against Dihydrofolate reductase [4], 7.27 against Dihydrofolate reductase [2] and 6.74 in test [3].
